Where two headings read alike, the source gives them in different places.
Columns and labels:
cotton aphid = assay: Insecticidal test on cotton aphid (seedling dip); format: in vivo; settings: Aphis gossypii, 72 h
Protocol: A wettable powder prepared in accordance with Formulation Example 2 was diluted with water to a concentration of an active ingredient of 500 ppm. Cucumber seedlings which had been inoculated with larvae of cotton aphid were dipped in this solution and dried in air. The treated cucumber seedlings were placed in a thermostatic chamber at 25° C. for 3 days, and the live insects were counted for calculation of the mortality by Equation 2. The test was carried out by one series system.

diamondback moth = assay: Insecticidal test on diamondback moth; format: in vivo; settings: Plutella xylostella, 144 h
Protocol: A wettable powder prepared in accordance with Formulation Example 2 was diluted with water to a concentration of an active ingredient of 500 ppm. Cabbage leaves were dipped in this solution and dried in air and then put in a plastic cup having a capacity of 60 mL. 10 second-instar larvae of diamondback moth were released in the cup and the cup was lidded. Then, the cup was placed in a thermostatic chamber at 25° C. for 6 days, and dead moths were counted for calculation of the mortality by Equation 2. The test was carried out by one series system.

cotton bollworm = assay: Insecticidal test on cotton bollworm; format: in vivo; settings: Helicoverpa armigera, 144 h
Protocol: A wettable powder prepared in accordance with Formulation Example 2 was diluted with water to a concentration of an active ingredient of 500 ppm. Cabbage leaves were dipped in this solution and dried in air and then put in a plastic cup having a capacity of 60 mL. Five hatched larvae of cotton bollworm were released in the cup, and the cup was lidded and placed in a thermostatic chamber at 25° C. for 6 days, and the number of dead larvae were assessed for calculation of the mortality by Equation 2. The test was carried out by two series system.

brown rice planthopper = assay: Insecticidal test on brown rice planthopper; format: in vivo; settings: 144 h
Protocol: A wettable powder prepared in accordance with Formulation Example 2 was diluted with water to a concentration of an active ingredient of 500 ppm. Rice sprouts were dipped in this solution and put in a plastic cup having a capacity of 60 mL. Ten third-instar larvae of brown rice planthopper were released in the cup, the cup was lidded and placed in a thermostatic chamber at 25° C. for 6 days, and the number of dead larvae were counted for calculation of the mortality by Equation 2. The test was carried out by one series system.

two-spotted spider mites = assay: Miticidal test on two-spotted spider mites (seedling dip); format: in vivo, Tetranvchus urticae; settings: Glycine max, 312 h, read-out: protective value
Protocol: A wettable powder prepared in accordance with Formulation Example 2 was diluted with water to a concentration of an active ingredient of 500 ppm. Soybean seedlings which had been inoculated with imago two-spotted spider mites were dipped in the solution and dried in air. The treated soybean seedlings were placed in a thermostatic chamber at 25° C. for 13 days, and the number of live mites were assessed for calculation of the protective value by Equation 1. The test was carried out by one series system.

[1] = 500 ppm active ingredient, soybean seedlings with imago mites dipped, 25° C., 13 days
[2] = 500 ppm active ingredient, cabbage leaves dipped, second-instar larvae, 25° C., 6 days, read-out: mortality
[3] = 500 ppm active ingredient, cabbage leaves dipped, hatched larvae, 25° C., 6 days, read-out: mortality
[4] = 500 ppm active ingredient, cucumber seedlings with larvae of cotton aphid dipped, 25° C., 3 days, read-out: mortality

Cc1cc(F)c(-n2nc(OC(F)(F)C(F)C(F)(F)F)cc2N)cc1SCC(F)(F)F (centres unmarked) [1-9, 5-amino-1-{2-fluoro-4-methyl-5-(2,2,2-trifluoroethylthio)phenyl}-3-(1,1,2,3,3,3-hexafluoropropoxy)pyrazole]
≥ 90%: mortality at 500 ppm (cotton aphid; in Cucumis sativus) | mortality at 500 ppm (diamondback moth; in Brassica oleracea) | mortality at 500 ppm (cotton bollworm; in Brassica oleracea) | mortality at 500 ppm (brown rice planthopper) | pest or weed control at 500 ppm (two-spotted spider mites; [1])

CC(=O)Nc1cc(OC(F)(F)C(F)OC(F)(F)F)nn1-c1cc([S+]([O-])CC(F)(F)F)c(C)cc1F (centres unmarked) [1-16, 5-acetylamino-1-{2-fluoro-4-methyl-5-(2,2,2-trifluoroethylsulfinyl)phenyl}-3-{1,1,2-trifluoro-2-(trifluoromethoxy)ethoxy}pyrazole]
≥ 90%: mortality at 500 ppm (cotton aphid; in Cucumis sativus) | mortality at 500 ppm (diamondback moth; in Brassica oleracea) | mortality at 500 ppm (cotton bollworm; in Brassica oleracea) | pest or weed control at 500 ppm (two-spotted spider mites; [1])

CC(=O)Nc1cc(OCC(F)(F)C(F)(F)C(F)(F)C(F)(F)F)nn1-c1cc(SCC(F)(F)F)c(C)cc1F [1-77, 5-acetylamino-1-{2-fluoro-4-methyl-5-(2,2,2-trifluoroethylthio)phenyl}-3-(2,2,3,3,4,4,5,5,5-nonafluoropentyloxy)pyrazole]
≥ 90%: mortality at 500 ppm (diamondback moth; [2]) | mortality at 500 ppm (cotton bollworm; [3]) | mortality at 500 ppm (brown rice planthopper) | pest or weed control at 500 ppm (two-spotted spider mites)

CC(=O)Nc1cc(OCC(F)(F)C(F)(F)C(F)(F)C(F)(F)F)nn1-c1cc([S+]([O-])CC(F)(F)F)c(C)cc1F (centres unmarked) [1-78, 5-acetylamino-1-{2-fluoro-4-methyl-5-(2,2,2-trifluoroethylsulfinyl)phenyl}-3-(2,2,3,3,4,4,5,5,5-nonafluoropentyloxy)pyrazole]
≥ 90%: mortality at 500 ppm (diamondback moth; [2]) | mortality at 500 ppm (cotton bollworm; [3]) | mortality at 500 ppm (brown rice planthopper) | pest or weed control at 500 ppm (two-spotted spider mites)

CC(=O)Nc1cc(OCC(F)(F)C(F)(F)F)nn1-c1cc([S+]([O-])CC(F)(F)Cl)c(C)cc1F (centres unmarked) [1-178, 5-acetylamino-1-{2-fluoro-4-methyl-5-(2-chloro-2,2-difluoroethylsulfinyl)phenyl}-3-(2,2,3,3,3-pentafluoropropoxy)pyrazole]
≥ 90%: mortality at 500 ppm (diamondback moth; [2]) | mortality at 500 ppm (cotton bollworm; [3]) | mortality at 500 ppm (brown rice planthopper)

CNc1cc(OC(F)(F)C(F)C(F)(F)F)nn1-c1cc([S+]([O-])CC(F)(F)F)c(C)cc1F (centres unmarked) [1-187, 1-{2-fluoro-4-methyl-5-(2,2,2-trifluoroethylsulfinyl)phenyl}-3-(1,1,2,3,3,3-hexafluoropropoxy)-5-methylaminopyrazole]
≥ 90%: mortality at 500 ppm (cotton aphid; [4]) | mortality at 500 ppm (diamondback moth; [2]) | mortality at 500 ppm (cotton bollworm; [3]) | mortality at 500 ppm (brown rice planthopper)

CC(=O)Nc1cc(OC(F)(F)C(F)(F)C(F)(F)F)nn1-c1cc([S+]([O-])CC(F)(F)F)c(C)cc1F (centres unmarked) [1-268, 5-acetylamino-1-{2-fluoro-4-methyl-5-(2,2,2-trifluoroethylsulfinyl)phenyl}-3-(1,1,2,2,3,3,3-heptafluoropropoxy)pyrazole]
≥ 90%: mortality at 500 ppm (diamondback moth; [2]) | mortality at 500 ppm (cotton bollworm; [3]) | pest or weed control at 500 ppm (two-spotted spider mites)

C#CCNc1cc(OC(F)(F)C(F)OC(F)(F)C(F)(F)C(F)(F)F)nn1-c1cc([S+]([O-])CC(F)(F)F)c(C)cc1F (centres unmarked) [1-358, 1-{2-fluoro-4-methyl-5-(2,2,2-trifluoroethylsulfinyl)phenyl}-5-(2-propynylamino)-3-{1,1,2-trifluoro-2-(heptafluoropropoxy)ethoxy}pyrazole]
≥ 90%: mortality at 500 ppm (diamondback moth; [2]) | mortality at 500 ppm (cotton bollworm; [3])

CC(=O)Nc1cc(OC(F)(F)C(F)OC(F)(F)C(F)(F)C(F)(F)F)nn1-c1cc(SCC(F)(F)F)c(C)cc1F (centres unmarked) [1-370, 5-acetylamino-1-{2-fluoro-4-methyl-5-(2,2,2-trifluoroethylthio)phenyl}-3-{1,1,2-trifluoro-2-(heptafluoropropoxy)ethoxy}pyrazole]
≥ 90%: mortality at 500 ppm (diamondback moth; [2]) | mortality at 500 ppm (cotton bollworm; [3]) | pest or weed control at 500 ppm (two-spotted spider mites)

CC(=O)Nc1cc(OC(F)(F)C(F)OC(F)(F)C(F)(F)C(F)(F)F)nn1-c1cc([S+]([O-])CC(F)(F)F)c(C)cc1F (centres unmarked) [1-371, 5-acetylamino-1-{2-fluoro-4-methyl-5-(2,2,2-trifluoroethylsulfinyl)phenyl}-3-{1,1,2-trifluoro-2-(heptafluoropropoxy)ethoxy}pyrazole]
≥ 90%: mortality at 500 ppm (diamondback moth; [2]) | mortality at 500 ppm (cotton bollworm; [3]) | pest or weed control at 500 ppm (two-spotted spider mites)

CC(=O)Nc1cc(OCC(F)(F)OC(F)(F)C(F)(F)OC(F)(F)F)nn1-c1cc(SCC(F)(F)F)c(C)cc1F [1-374, 5-acetylamino-3-[2,2-difluoro-2-{2-trifluoromethoxy-(1,1,2,2-tetrafluoroethoxy)}ethoxy]-1-{2-fluoro-4-methyl-5-(2,2,2-trifluoroethylthio)phenyl}pyrazole]
≥ 90%: mortality at 500 ppm (diamondback moth; in Brassica oleracea) | mortality at 500 ppm (cotton bollworm; in Brassica oleracea) | pest or weed control at 500 ppm (two-spotted spider mites; [1])

CC(=O)Nc1cc(OCC(F)(F)OC(F)(F)C(F)(F)OC(F)(F)F)nn1-c1cc([S+]([O-])CC(F)(F)F)c(C)cc1F (centres unmarked) [1-375, 5-acetylamino-3-[2,2-difluoro-2-{2-trifluoromethoxy-(1,1,2,2-tetrafluoroethoxy)}ethoxy]-1-{2-fluoro-4-methyl-5-(2,2,2-trifluoroethylsulfinyl)phenyl}pyrazole]
≥ 90%: mortality at 500 ppm (diamondback moth; in Brassica oleracea) | mortality at 500 ppm (cotton bollworm; in Brassica oleracea) | pest or weed control at 500 ppm (two-spotted spider mites; [1])

CC(=O)Nc1cc(OC(F)(F)C(F)(F)C(F)(F)C(F)(F)C(F)(F)F)nn1-c1cc(SCC(F)(F)F)c(C)cc1F [1-488, 5-acetylamino-1-{2-fluoro-4-methyl-5-(2,2,2-trifluoroethylthio)phenyl}-3-(1,1,2,2,3,3,4,4,5,5,5-undecafluoropentyloxy)pyrazole]
≥ 90%: mortality at 500 ppm (diamondback moth; [2]) | mortality at 500 ppm (cotton bollworm; [3])

CC(=O)Nc1cc(OC(F)(F)C(F)(F)C(F)(F)C(F)(F)C(F)(F)F)nn1-c1cc([S+]([O-])CC(F)(F)F)c(C)cc1F (centres unmarked) [1-489, 5-acetylamino-1-{2-fluoro-4-methyl-5-(2,2,2-trifluoroethylsulfinyl)phenyl}-3-(1,1,2,2,3,3,4,4,5,5,5-undecafluoropentyloxy)pyrazole]
≥ 90%: mortality at 500 ppm (diamondback moth; [2]) | mortality at 500 ppm (cotton bollworm; [3]) | pest or weed control at 500 ppm (two-spotted spider mites)

CNc1cc(OC(F)(F)C(F)(F)C(F)(F)C(F)(F)C(F)(F)F)nn1-c1cc(SCC(F)(F)F)c(C)cc1F [1-524, 1-{2-fluoro-4-methyl-5-(2,2,2-trifluoroethylthio)phenyl}-5-methylamino-3-(1,1,2,2,3,3,4,4,5,5,5-undecafluoropentyloxy)pyrazole]
≥ 90%: mortality at 500 ppm (diamondback moth; [2]) | mortality at 500 ppm (cotton bollworm; [3]) | mortality at 500 ppm (brown rice planthopper) | pest or weed control at 500 ppm (two-spotted spider mites)

CNc1cc(OC(F)(F)C(F)(F)C(F)(F)C(F)(F)C(F)(F)F)nn1-c1cc([S+]([O-])CC(F)(F)F)c(C)cc1F (centres unmarked) [1-525, 1-{2-fluoro-4-methyl-5-(2,2,2-trifluoroethylsulfinyl)phenyl}-5-methylamino-3-(1,1,2,2,3,3,4,4,5,5,5-undecafluoropentyloxy)pyrazole]
≥ 90%: mortality at 500 ppm (diamondback moth; [2]) | mortality at 500 ppm (cotton bollworm; [3]) | mortality at 500 ppm (brown rice planthopper) | pest or weed control at 500 ppm (two-spotted spider mites)

Cc1cc(F)c(-n2nc(OC(F)(F)C(F)OC(F)(F)F)cc2C(F)F)cc1SCC(F)(F)F (centres unmarked) [1-1531, 5-difluoromethyl-1-{2-fluoro-4-methyl-5-(2,2,2-trifluoroethylthio)phenyl}-3-{1,1,2-trifluoro-2-(trifluoromethoxy)ethoxy}pyrazole]
≥ 90%: mortality at 500 ppm (cotton aphid; in Cucumis sativus) | mortality at 500 ppm (diamondback moth; in Brassica oleracea) | mortality at 500 ppm (brown rice planthopper) | pest or weed control at 500 ppm (two-spotted spider mites; [1])

Cc1cc(F)c(-n2nc(OC(F)(F)C(F)OC(F)(F)F)cc2CF)cc1SCC(F)(F)F (centres unmarked) [1-1579, 1-{2-fluoro-4-methyl-5-(2,2,2-trifluoroethylthio)phenyl}-5-fluoromethyl-3-{1,1,2-trifluoro-2-(trifluoromethoxy)ethoxy}pyrazole]
≥ 90%: mortality at 500 ppm (cotton aphid; in Cucumis sativus) | mortality at 500 ppm (diamondback moth; in Brassica oleracea) | mortality at 500 ppm (brown rice planthopper) | pest or weed control at 500 ppm (two-spotted spider mites; [1])

Cc1cc(F)c(-n2nc(OCC(F)(F)C(F)(F)C(F)(F)F)cc2NC=O)cc1[S+]([O-])CC(F)(F)F (centres unmarked) [1-1594, 1-{2-fluoro-4-methyl-5-(2,2,2-trifluoroethylsulfinyl)phenyl}-5-formylamino-3-(2,2,3,3,4,4,4-heptafluorobutoxy)pyrazole]
≥ 90%: mortality at 500 ppm (cotton aphid; [4]) | mortality at 500 ppm (diamondback moth; [2]) | mortality at 500 ppm (cotton bollworm; [3])

Source: US8802713B2, “3-alkoxy-1-phenylpyrazole derivatives and pesticides” (Kumiai Chemical Industry Co., Ltd., priority 2007, dated 2014)
